Experimental data: ChEMBL document CHEMBL1201862, “PubChem BioAssay data set” (2004)
Active and inactive are the calls of the source.

How the values were obtained:
[1] = activation of miR-122 Renilla sensor silencing – cell-based, Huh7 psiCHECK-miR122, Renilla luciferase, cherry-picked, dose response (AID 651956); format: functional;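 further: huh7 hepatoma cells stably carrying a psiCHECK-2 miR-122 sensor plasmid; renilla luciferase signal reporting endogenous miR-122 activity after 48 h compound exposure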
[2] = general mammalian cell viability loss – activator set, cherry-pick, cytotoxicity control for miR-122 modulator project, dose response (AID 720690); format: functional, cell-based;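 further: HEK293T human cells scored for general mammalian cytotoxicity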
[3] = general mammalian cell viability loss – inhibitor set, cherry-pick, set 2, cytotoxicity control for miR-122 modulator project, dose response (AID 720697); format: functional, cell-based
[4] = luciferase reporter signal suppression in cells – H4 neuroglioma cells, luminescence, dose response (AID 1990); format: functional, cell-based
Beta-lactamase [5] = target: Beta-lactamase (Salmonella choleraesuis (strain SC-B67), UniProt Q5J463)
[6] = Luminescence Cell-Based Dose Response HTS to Identify Inhibitors of 5'UTR Stem-Loop Driven Prion Protein mRNA Translation in H4 Neuroglioblastoma Cells. [Related pubchem assays: 1827 (Project Summary), 1813 (Primary HTS)]; format: functional
INS1 = experiment: INS-1E survival protection against cytokine death – cell-based, luminescence, retest, dose response (AID 449756); format: functional; settings: Rattus norvegicus;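 further: cell death triggered by IL-1 beta plus TNF-alpha plus IFN-gamma mixture; protective hits raise ATP signal compared with cytokine alone wells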
Beta-lactamase [7] = target: Beta-lactamase (Pseudomonas aeruginosa, UniProt Q79MP6);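 further: biochemical dose-response test of metallo-beta-lactamase enzyme inhibition, read out by epi-absorbance; purified recombinant IMP-1 metallo-beta-lactamase with nitrocefin as substrate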
cells [8] = experiment: cells
[9] = microbe, parasite or virus in culture; format: functional; settings: Mycobacterium tuberculosis
Major prion protein = Major prion protein (Homo sapiens, UniProt P04156); format: functional, cell-based
[10] = alpha-synuclein stem-loop luciferase translation blockers – H4 neuroglioma cells, luminescence, confirmation (AID 1988); format: functional, cell-based
[11] = Late stage assay provider results from the probe development effort to identify selective inhibitors of heat shock protein 90 (HSP90): Absorbance-based cell proliferation assay in SKBR3 cells.; format: functional; settings: SK-BR-3
[12] = Late stage assay provider results from the probe development effort to identify selective inhibitors of heat shock protein 90 (HSP90): Absorbance-based cell proliferation assay in MCF7 cells.; format: functional
[13] = MITF Orthogonal Assay: SK-MEL-5 CTG Assay Measured in Cell-Based System Using Plate Reader - 2084-02_Inhibitor_Dose_DryPowder_Activity_Set7.; format: functional
[14] = inhibitors of TRPM1-promoter reporter in SK-MEL-5 – cell-based, luciferase, dry powder, set 8, MITF inhibitor project, dose response (AID 624430); format: functional
[15] = MITF: Counter assay: A375 proliferation Measured in Cell-Based System Using Plate Reader - 2084-03_Inhibitor_Dose_DryPowder_Activity_Set8.; format: functional; settings: A-375
Protein Wnt-3a = Protein Wnt-3a (Mus musculus, UniProt P27467); experiment: SAR analysis of small molecule antagonists of Gli-SUFU in a Wnt3a luminescent reporter assay.; format: functional
[16] = target: Disintegrin and metalloproteinase domain-containing protein 17 (Homo sapiens, UniProt P78536); experiment: exosite inhibitors of ADAM17, dose response, biochemical (AID 743260)
[17] = inhibition of ADAM10 peptide cleavage – biochemical, FRET peptide substrate, recombinant human ADAM10, selectivity assay for ADAM17 exosite inhibitor project, dose response (AID 743259);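 further: ADAM10 enzyme cleaving a FRET peptide substrate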
cells [18] = format: functional, cell-based; settings: HEK-CNG
[19] = target: T1, High affinity choline transporter 1 (Homo sapiens, UniProt Q9GZV3); experiment: human choline transporter blockers, potency – cell-based, 10-point CRC, membrane potential dye, dose response (AID 588401); format: functional;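 further: membrane potential dye fluorescence of choline-evoked depolarization via CHT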
T1 sequence (Q9GZV3 whole entry): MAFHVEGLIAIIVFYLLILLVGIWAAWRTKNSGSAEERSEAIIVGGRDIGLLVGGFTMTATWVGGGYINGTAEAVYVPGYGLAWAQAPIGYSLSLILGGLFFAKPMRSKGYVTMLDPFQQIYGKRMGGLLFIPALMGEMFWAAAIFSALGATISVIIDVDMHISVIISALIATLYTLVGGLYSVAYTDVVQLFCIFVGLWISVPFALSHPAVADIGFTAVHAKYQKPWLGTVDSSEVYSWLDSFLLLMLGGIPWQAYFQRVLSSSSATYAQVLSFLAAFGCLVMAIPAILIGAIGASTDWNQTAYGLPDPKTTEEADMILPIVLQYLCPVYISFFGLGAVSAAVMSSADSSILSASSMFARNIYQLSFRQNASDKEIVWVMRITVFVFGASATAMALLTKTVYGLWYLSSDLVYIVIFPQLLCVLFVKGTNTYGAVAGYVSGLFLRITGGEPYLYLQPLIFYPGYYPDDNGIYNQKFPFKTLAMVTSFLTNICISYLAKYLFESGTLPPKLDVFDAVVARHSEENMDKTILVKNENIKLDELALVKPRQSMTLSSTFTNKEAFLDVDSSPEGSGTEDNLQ

Galanin receptor type 3 = target: T2, Galanin receptor type 3 (Homo sapiens, UniProt O60755); experiment: Fluorescence-based cell-based primary high throughput dose response assay to identify antagonists of the Galanin Receptor 3 (GalR3).; format: functional
T2 sequence (O60755 whole entry): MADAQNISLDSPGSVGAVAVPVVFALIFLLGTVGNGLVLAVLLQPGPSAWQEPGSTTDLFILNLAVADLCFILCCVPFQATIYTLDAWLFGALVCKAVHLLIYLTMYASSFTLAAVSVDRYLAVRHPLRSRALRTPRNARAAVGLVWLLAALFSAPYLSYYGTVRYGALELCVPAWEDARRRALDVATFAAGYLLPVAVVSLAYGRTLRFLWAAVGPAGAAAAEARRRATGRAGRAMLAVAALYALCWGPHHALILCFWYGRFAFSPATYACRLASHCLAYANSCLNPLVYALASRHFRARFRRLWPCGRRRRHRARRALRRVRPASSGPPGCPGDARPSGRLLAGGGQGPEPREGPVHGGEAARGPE

[20] = target: T1, High affinity choline transporter 1; experiment: human choline transporter blockers, potency – cell-based, 5-point CRC, membrane potential dye, dose response (AID 504840); format: functional
[21] = Luminescence Cell-Based Dose Retest to Confirm Inhibitors of Cancer Stem Cells. [Related pubchem assays (depositor defined):AID2717, AID2721]; format: functional; settings: Homo sapiens
[22] = viability loss in HEK293T cells – cell-based, cherry-picks, cytotoxicity control for HIV Vif inhibitor project, dose response (AID 652208); format: functional
NS3 = NS3 (Hepatitis C virus, UniProt A3EZJ3); experiment: NS3h DNA-binding inhibition IC50 – biochemical, fluorescence polarization, ChemBridge library, dose response (AID 743264)
fMet-Leu-Phe receptor = fMet-Leu-Phe receptor (Homo sapiens, UniProt P21462); experiment: formyl peptide receptor binders – dose response (AID 519); format: functional

Question: What does the source list for C[C@@H]1CCCCO[C@@H](CN(C)CC2CCCCC2)[C@@H](C)CN([C@@H](C)CO)C(=O)c2cc(NC(=O)Nc3cccc4ccccc34)ccc2O1?
Answer: AC50 [1]: 10.4 µM (active); AC50 [2]: 14.6 µM (active); AC50 [3]: 8.05 µM (active)

Question: Which EC50 [4] does the source give for CCOc1ccc(-c2cc(C(=O)NCCCn3ccnc3)c3cc(Br)ccc3n2)cc1 here?
Answer: > 120 µM (not active)

Question: And the IC50 (Beta-lactamase [5])?
Answer: > 59.6 µM (inactive)

Question: And the EC50 [6]?
Answer: > 120 µM (not active)

Question: And the AC50 (INS1)?
Answer: 9.7 µM (active)

Question: What about the IC50 (Beta-lactamase [7]) of the same molecule?
Answer: > 59.6 µM (inactive)

Question: What about the IC50 (cells [8]) of the same molecule?
Answer: 23.5 µM (inactive)

Question: What about the CC50 [9] of the same molecule?
Answer: 16.7 µM (active)

Question: What about the IC50 (Major prion protein) of the same molecule?
Answer: 4.38 µM (active)

Question: And the EC50 [10]?
Answer: > 120 µM (not active)

Question: Which IC50 [11] does the source give for O=C1OC(=O)/C(=C\Nc2ccccc2F)C=C1Br here?
Answer: 13.3 µM (inactive)

Question: What about the IC50 [12] of the same molecule?
Answer: 13.6 µM (inactive)

Question: Which results are given for CCN1CCN(C2=C(Nc3ccc(Br)cc3)C(=O)c3ccccc3C2=O)CC1?
Answer: AC50 [13]: 8.61 µM (active); AC50 [14]: 10.7 µM (active); AC50 [15]: 29.3 µM (active)

Question: With COc1cc(OC)cc(C(=O)Nc2cc(N(C)C)ncn2)c1 as the molecule, how does the IC50 (Protein Wnt-3a) read?
Answer: > 21.8 µM (inactive)

Question: Which results are given for COc1ccc(NC(=O)Nc2ccc3c(c2)C(=O)N([C@@H](C)CO)C[C@@H](C)[C@@H](CN(C)S(=O)(=O)c2cccs2)O3)cc1?
Answer: IC50 [16]: > 69.5 µM (inactive); IC50 [17]: > 7.72 µM (active)

Question: With C=CCNc1ncnc2c1ncn2C1OC(CO)C(O)C1O (stereo not drawn) as the molecule, how does the EC50 (cells [18]) read?
Answer: 15.8 µM (inactive)

Question: What about the IC50 [19] of the same molecule?
Answer: 6.31 µM (active)

Question: What about the IC50 (Galanin receptor type 3) of the same molecule?
Answer: > 0.369 µM (active)

Question: And the IC50 [20]?
Answer: 9.17 µM (active)

Question: And the AC50 [21]?
Answer: 3.33 µM (active)

Question: What about the AC50 [22] of the same molecule?
Answer: 22.1 µM (active)

Question: Which IC50 (NS3) does the source give for O=C1NC(=S)N(c2ccccc2F)C(=O)C1=Cc1ccco1 here?
Answer: 3.35 µM (inactive)

Question: Which Ki (fMet-Leu-Phe receptor) does the source give for CCOc1cccc(C(=O)C2=C(O)C(=O)N(Cc3cccnc3)C2c2ccco2)c1 (stereo not drawn) here?
Answer: > 66.7 µM (inactive)
